Laboratory results as given in paper PMC10831786 (Virus Research, 2024).
Where a name gives a salt, the structure may show the parent alone.

Columns and labels:
[1] = MTS assay, growth inhibition and toxicity in non-infected Vero E6 cells; format: cell-based, African green monkey; settings: African green monkey, non-infected Vero E6 cells, MTS, 72 h; read-out: Fifty percent effect (CC50) in non-infected Vero E6
Description: (§1) Detailed methods are provided in Supplementary Information.
(§2) Vero E6 and BEC-hACE2 cells were grown to 70-80% density in their maintenance media and exposed to various concentrations of ipecac alkaloids (0.0125 – 200 µM) under standard culture conditions for 48-72 h and 24 h, respectively. Controls with varying amounts of DMSO and no DMSO were included also. Vero E6 cells were incubated with drugs in 2% FBS-EMEM, while BEC-HACE2 cells were grown and treated in complete PCS-300-03 medium with supplements. Similar treatments were also conducted using fully confluent non-growing BEC-hACE2 cells. At the end of the exposure period, MTS reagent (Promega G3580) was added at 1/5th of the medium volume and color was allowed to develop by incubation of the plates for an hour in a cell culture incubator. To stop reactions, SDS was added to a final concentration of 2% and optical density of samples was measured at 450 or 490 nm, depending on the model of spectrophotometer (PharmaciaBiotech, NJ, USA; UV spectrophotometer, model Ultrospec2000) or plate reader (Molecular Devices, CA, USA; model Filter Max F5 Multi-mode microplate reader) available at the time of experiment.

Entamoeba histolytica = settings: in vitro; ref Burchard and Mirelman, 1988; cited from earlier work
[2] = MTS assay, growth inhibition and toxicity in non-infected BEC-hACE2 cells; format: cell-based, human; settings: human, sub-confluent non-infected BEC-hACE2 cells; sub-confluent BEC-hACE2, 24 h; read-out: MTS, CC50 (50 % effect)
Description: as §1, §2

CC[C@H]1CN2CCc3cc(OC)c(OC)cc3[C@@H]2C[C@@H]1C[C@H]1NCCc2cc(OC)c(OC)cc21 [Emetine, 2H-Benzoaquinolizine, 3-ethyl-1,3,4,6,7,11b-hexahydro-9,10-dimethoxy-2-(1R)-1,2,3,4-tetrahydro-6,7-dimethoxy-1-isoquinolinylmethyl-, dihydrochloride, (2S,3R,11bS)-, reference compound]
CC50 at 72 h [1]: 1.52 µM | Concentration required to inhibit growth of Entamoeba histolytica (Entamoeba histolytica): 12 to 25 µM | CC50 at 24 h [2]: 100 µM
